From publication PMC8395335, “Serotonergic–Muscarinic Interaction within the Prefrontal Cortex as a Novel Target to Reverse Schizophrenia-Related Cognitive Symptoms” (International Journal of Molecular Sciences, 2021)

What was measured:
[1] = test system: MK-801-treated mice; assay: Y-maze test (spontaneous alternations), MK-801-induced deficits; assay type: in vivo; settings: for Reversal of MK-801-induced disruptions in Y-maze by combined administration: 7 days; for Effect of combined administration on spontaneous alternations in the Y-maze test: MK-801-treated
Protocol: (§1) Drugs were administered on two different schedules: (1) acute administration of compounds 45 min (WAY100635—5-HT1A antagonist) or 30 min (VU0357017, VU152100, VU0238429, and F15599) before MK-801 (also administered once 30 min before the test in Y-maze or T1 in NOR test); and (2) prolonged administration (once per day for 7 consecutive days) of the compounds and MK-801 with the last administration 24 h before the test (NOR test) or at the day of the test (Y-maze). […] Schedules of administration are presented graphically in Figure 2. The subeffective doses of the compounds for acute administration in the NOR test were chosen based on our previous research (see: [22, 23]) while dose-dependent studies of the activity of the compounds in reversing disruptions in the Y-maze or after prolonged administration along with MK-801 were performed within this study. Different vehicles were used throughout the study: (1) 0.9% NaCl and (2) 10% Tween 80. Vehicles were administered to all animals (e.g., control mice and MK-801-treated mice) on the same schedule as drugs were administered to the appropriate drug-treated groups of mice. Neither solvent exerted effects on animal behavior.
(§2) Male Albino Swiss mice (Charles River, Sulzfeld, Germany) weighing 20–25 g at the beginning of the experiments were used in the studies. The animals were housed in a room with a 12:12 h light-dark cycle at a temperature of 22 ± 1 °C with food and water available ad libitum. The experimental groups consisted of 8–10 animals. All drugs were administered intraperitoneally (i.p.) at a volume of 10 mL/kg. The behavioral experiments were performed by an observer who was blinded to the treatment. The procedures were conducted in accordance with the European Communities Council Directive of 22 September 2010 (2010/63/EU) and Polish legislation acts concerning animal experimentation and were approved by the II Local Ethics Committee by the Maj Institute of Pharmacology, Polish Academy of Sciences in Krakow (15/2020, 240/2020).
(§3) In acute experiments, the tested compounds (alone or in combination) were administered 30 min before MK-801 (0.3 mg/kg), which was administered 30 min before the test or training trial (T1) in the NOR test. In chronic experiments, the tested compounds (alone or in combination) and MK-801 were administered for seven days. Behavioral tests were performed on the eighth day.
The Y-maze was performed using the methods described by Miedel et al. and Kraeuter et al. with minor modifications. A black, wooden Y-shaped apparatus with equal length arms (labeled A, B, or C) spaced 120 apart was used in the behavioral experiment. Visual clues were placed inside the maze and mounted to the back wall of each arm. The experiment was performed in a well-lit room. The mice were placed in the same starting arm and were allowed to freely explore the maze for 8 min. After each trial, the maze was wiped clean. The sequence and the number of arm entries were recorded to calculate the percentage of spontaneous alternations using the following formula: [(Number of alternations)/(Total arm entries − 2)] × 100. An arm entry was scored if the animal entered the arm with all paws. Consecutive entries into three distinct arms were scored as an alternation (e.g., ACB, but not ACA) in which sequences could overlap (e.g., ACBACABAC represents […] alternations).

[2] = test system: MK-801-treated mice; assay: Novel object recognition (NOR) test, MK-801-induced deficits; assay type: in vivo; settings: for Reversal of MK-801-induced disruptions in NOR test by combined administration: 7 days; for Effect of combined administration on MK-801-induced memory deficits in the NOR test: subeffective doses; for Effect of top dose on MK-801-induced deficits in the NOR test: 5 mg/kg i.p., alone
Protocol: as §1, §2, §3
The NOR test was performed as described previously. Briefly, the habituation, training and test trial were carried out in a dark room in a black, plastic rectangular arena illuminated with a 355 lux bulb. During the habituation trial, the animals were allowed to explore the arena in the absence of objects (10 min/day for 2 days). The next day, the training (T1) and test (T2) trials were performed. Throughout T1, mice were allowed to freely explore two identical objects (5 min), one of which was subsequently replaced by a novel object in T2 (1 h later, 5 min of exploration). Time spent exploring (i.e., sniffing or touching) the familiar (Tfamiliar) or novel object (Tnovel) was measured by a trained observer, and then the recognition index was calculated for each mouse [(Tnovel − Tfamiliar)/(Tfamiliar + Tnovel)] × 100.

[3] = F15599 0.025 mg/kg with VU0238429 1 mg/kg (subeffective doses)
[4] = F15599 0.025 mg/kg with VU0357017 1 mg/kg (subeffective doses)
[5] = acute, F15599 0.1 mg/kg with VU0238429 5 mg/kg
[6] = acute, F15599 0.1 mg/kg with VU0357017 10 mg/kg
[7] = F15599 0.05 mg/kg with VU0238429 1 mg/kg (subeffective doses)
[8] = F15599 0.05 mg/kg with VU0357017 0.15 mg/kg (subeffective doses)

| SMILES | Reversal of MK-801-induced disruptions in Y-maze by combined administration [1, 3] | Reversal of MK-801-induced disruptions in Y-maze by combined administration [1, 4] | Effect of combined administration on spontaneous alternations in the Y-maze test [1, 5] | Effect of combined administration on spontaneous alternations in the Y-maze test [1, 6] | Reversal of MK-801-induced disruptions in NOR test by combined administration [2, 7] | Reversal of MK-801-induced disruptions in NOR test by combined administration [2, 8] | Effect of combined administration on MK-801-induced memory deficits in the NOR test ([2]; acute, F15599 with VU0238429) | Effect of combined administration on MK-801-induced memory deficits in the NOR test ([2]; acute, F15599 with VU0357017) | Reversal of MK-801-induced reduction in spontaneous alternations in the Y-maze ([1]; 7 days with MK-801, 0.5 mg/kg) | Reversal of MK-801-induced reduction in spontaneous alternations in the Y-maze ([1]; 7 days with MK-801, 1 mg/kg) | Reversal of MK-801-induced reduction in spontaneous alternations in the Y-maze ([1]; 7 days with MK-801, 5 mg/kg) | Effect of top dose on MK-801-induced deficits in the NOR test ([2]; acute) | other results |
| --- | --- | --- | --- | --- | --- | --- | --- | --- | --- | --- | --- | --- | --- |
| Cc1cnc(CNCC2(F)CCN(C(=O)c3ccc(F)c(Cl)c3)CC2)nc1 [F15599] | did not reverse | did not reverse | no effect | no effect | reversed | reversed | no effect | no effect | – | – | – | – | Reversal of MK-801-induced reduction in spontaneous alternations in the Y-maze ([1]; 7 days with MK-801, 0.025 mg/kg): ineffective; Reversal of MK-801-induced reduction in spontaneous alternations in the Y-maze ([1]; 7 days with MK-801, 0.05 mg/kg): ineffective; Reversal of MK-801-induced reduction in spontaneous alternations in the Y-maze ([1]; 7 days with MK-801, 0.1 mg/kg): reversed; Reversal of MK-801-induced disruptions in Y-maze by combined administration ([1]; F15599 0.025 mg/kg with VU0152100 0.05 mg/kg (subeffective doses)): did not reverse; Reversal of MK-801-induced reduction in spontaneous alternations in the Y-maze ([1]; acute, 0.05-0.5 mg/kg i.p.): no efficacy; Effect of combined administration on spontaneous alternations in the Y-maze test ([1]; acute, F15599 0.1 mg/kg with VU0152100 1 mg/kg): no effect; Reversal of MK-801-induced deficits in the NOR test (recognition index) ([2]; 7 days with MK-801, 0.025 mg/kg i.p.): ineffective; Reversal of MK-801-induced deficits in the NOR test (recognition index) ([2]; 7 days with MK-801, 0.1 mg/kg i.p.): reversed; Reversal of MK-801-induced disruptions in NOR test by combined administration ([2]; F15599 0.05 mg/kg with VU0152100 0.05 mg/kg (subeffective doses)): reversed; Reversal of MK-801-induced deficits in the NOR test (recognition index) ([2]; acute, 0.05 mg/kg i.p., 30 min before MK-801): ineffective; Reversal of MK-801-induced deficits in the NOR test (recognition index) ([2]; acute, 0.1 mg/kg i.p., 30 min before MK-801 (0.3 mg/kg)): reversed; Reversal of MK-801-induced deficits in the NOR test (recognition index) ([2]; acute, 0.5 mg/kg i.p., 30 min before MK-801): reversed; Effect of combined administration on MK-801-induced memory deficits in the NOR test ([2]; acute, F15599 with VU0152100): no effect |
| COc1ccc(CN2C(=O)C(=O)c3cc(OC(F)(F)F)ccc32)cc1 [VU0238429] | did not reverse | – | no effect | – | reversed | – | no effect | – | not | not | active | pro-cognitive effect | Reversal of MK-801-induced reduction in spontaneous alternations in the Y-maze ([1]; acute, 5 mg/kg i.p.): ineffective; Reversal of MK-801-induced reduction in spontaneous alternations in the Y-maze ([1]; acute, 10 mg/kg i.p.): reversed; Reversal of MK-801-induced reduction in spontaneous alternations in the Y-maze ([1]; acute, 20 mg/kg i.p.): reversed; Reversal of MK-801-induced deficits in the NOR test (recognition index) ([2]; 7 days with MK-801, 0.5 mg/kg): ineffective; Reversal of MK-801-induced deficits in the NOR test (recognition index) ([2]; 7 days with MK-801, 1 mg/kg): ineffective; Reversal of MK-801-induced deficits in the NOR test (recognition index) ([2]; 7 days with MK-801, 5 mg/kg): active |
| CCOC(=O)N1CCC(NCCNC(=O)c2ccccc2C)CC1 [VU0357017] | – | did not reverse | – | no effect | – | reversed | – | no effect | not | not | activity of VU0357017 was observed | pro-cognitive effect | Reversal of MK-801-induced reduction in spontaneous alternations in the Y-maze ([1]; acute, 1-10 mg/kg i.p.): No efficacy; Reversal of MK-801-induced deficits in the NOR test (recognition index) ([2]; 7 days with MK-801, 0.15 mg/kg): ineffective |
